From US20260097091A1, “ADMINISTRATION OF GLUTATHIONE TRISULFIDE TO AMELIORATE PERIPHERAL NEUROPATHY” (The General Hospital Corporation, priority 2022, published 2026) come the findings set out here.

pIC50: −log10 of the molar value.

One data set relates to mouse model of PIPN. Kind of data set: hot plate test of thermal hyperalgesia in mouse model of PIPN. Type of data set: in vivo, mice (C57BL/6J). From the text: All animal protocols were approved by the Massachusetts General Hospital Institutional Animal Care and Use Committee. Animals were cared for in accordance with the guidelines established by the NIH and the International Association for the Study of Pain [16]. Male C57BL/6J mice (6-7 weeks old) were purchased from the Jackson Laboratory (Bar Harbor, ME, USA). The mice were housed in a 12-hour shift light-control environment from 7 am to […] with ad libitum access to food and water in our animal facility until the time of experiments.
Paclitaxel (Sigma-Aldrich) was dissolved with ethanol and cremophor (1:1) and diluted with normal saline (1:4). Peripheral neuropathy was induced in mice by intraperitoneal (i.p.) administration of 4 mg/kg paclitaxel every other day for a total of 4 injections (cumulative dose of 16 mg/kg), according to a previously described protocol. A stable, crystallized form of GSSSG was produced and provided by Kyowa Hakko Bio CO., LTD. […] The dose of GSSSG was determined based on pilot studies. […]
To assess hyperalgesia, the heat threshold was determined by the hot plate test. […] The test was repeated 2 times after 5 minutes interval by a blinded examiner, and the average time was calculated. The ratio of change from the baseline was calculated from the difference of the latency response time from the baseline divided by the baseline time. […]
(In general: Thermal pain tests record how soon the animal reacts.)

A further data set deals with primary cortical neurons. In words: axonal degeneration in primary cortical neurons. Type of data set: cell-based, mice. As to conditions: 10 μM of GSSSG.
Data set [1] can be described thus: tissue distribution of orally administered ^34S-labeled GSSSG by LC-MS/MS. Format: in vivo, mice. To be noted: 2 hours after oral ^34S-labelled GSSSG 50 mg/kg; mice. Here is the method: To determine the tissue distribution of orally-administered GSSSG, ^34S-labelled GSSSG was administered by gavage to each of four mice. ^34S-labelled GSSSG was synthesized and provided by Kyowa Hakko Bio CO., LTD. Two hours after a single dose of ^34S-GSSSG, DRG, lumber spinal cord, brain, liver, and plasma were obtained and snap frozen for later analysis.
We examined whether administrated GSSSG via oral gavage reaches peripheral nervous system using liquid chromatography with tandem mass spectrometry (LC-MS/MS). Fifty mg/kg of ^34S-labeled GSSSG (in which the middle sulfur, that is a sulfane sulfur, was replaced to ^34S; G-^32S-^34S-^32S-G) was orally administered to mice. Two hours after administration, plasma and tissue from liver, brain, lumbar spinal cord, and lumbar DRG (L1 to L6) were collected and immediately frozen at −80° C. Tissues were homogenized with 5 mM of β-(4-hydroxyphenyl)ethyl iodoacetamide (HPE-IAM) (Santa Cruz, Cat No. SC-473766) and incubated for 20 minutes at 37° C. to promote HPE-IAM reaction that stabilizes persulfide residues. Proteins were removed by centrifugation at 15,000 g for 10 minutes at 4° C., and total protein concentration was measured by BCA assay. The supernatant was diluted by 0.1% formic acid for LC-MS/MS analysis. The amount of ^34S-labeled GSSSG was quantified in selective reaction monitoring (SRM) with precursor ion (647.14 m/z), product ion (389.1 m/z), and HCD (21 v) and normalized by protein concentration. The ratio of ^34S-labeled reactive sulfur species to endogenous (^32S) reactive sulfur species (GSSH, CysSSH, and CysSSSCys) were also calculated from their peak area measured by Dionex UltiMate 3000 RS UPLC-Orbitrap Exploris 480 mass spectrometer (Thermo Scientific Scientific, Waltham, MA, USA). In brief, samples were subjected to the UPLC system with a Hypersil Gold C-18 (100×2.1 mm, 3.0 μm, Thermo Fisher Scientific) column and they were eluted by using a linear methanol gradient of the mobile phase (0-90%, 15 minutes) in the presence of 0.1% formic acid at a flow rate of 0.2 ml/minutes at 40 degrees. The raw data were obtained by Compound Discoverer software 3.3. Molecular weight of reactive sulfur species combined with HPE-IAM were reported in previous studies.

Data set [2] concerns MDA-MB-231 human breast cancer cells. Kind of data set: MDA-MB-231 cell viability by LDH Cytotoxicity Detection assay. To be noted: 24 hours incubation. Format: cell-based. Here is the method: To examine whether co-administration of GSSSG affects anti-tumor effects of paclitaxel, we conducted experiments using MDA-MB-231, a human breast cancer cell line (HTB-26, ATCC). Cells were cultured in the medium of 90% RPMI1640 (Corning, Cat No. 10-040-CV), 10% FBS, and 1% penicillin/streptomycin. After being seeded into a 96-well plate at the density of 20,000/well and cultured overnight, they were exposed to different concentrations of paclitaxel (0.125 μM, 0.25 μM, 0.5 μM, 1 μM, and 2 μM) and incubated for 24 hours. Cell viability was evaluated by LDH Cytotoxicity Detection Kit (Roche, Cat No. 11644793001). Briefly, a plate was centrifuged at 250×g for 10 minutes. Cells were washed with PBS and incubated with 100 μl of 1% Triton X-100 at 37° C. for 30 minutes. After mixing with assay enzyme for 30 minutes at 25° C., absorbance was measured at wavelength 492 nm to determine cell viability. Inhibitory effects of paclitaxel were calculated by half-maximal inhibitory concentration (IC50). We utilized the IC50 of paclitaxel obtained with LDH assay to examine the anti-tumor effect of paclitaxel and co-administration of GSSSG using the trypan blue exclusion assay. […] MDA-MB-231 cells were seeded 5.6×10,000/well in a 6-well plate and incubated overnight. […] After being stripped by 0.25% trypsin, live cells were counted under 0.04% trypan blue. Five wells were evaluated per group.

Take `N[C@@H](CCC(=O)N[C@@H](CSSSC[C@H](NC(=O)CC[C@H](N)C(=O)O)C(=O)NCC(=O)O)C(=O)NCC(=O)O)C(=O)O` [GSSSG, glutathione trisulfide]: the “threshold for thermal hyperalgesia (hot plate test)” value in the data set with mouse model of PIPN (GSSSG 50 mg/kg/day oral in paclitaxel-treated mice) is given as “not altered”. In addition, the “axonal degeneration in primary cortical neurons” value in the data set on primary cortical neurons is on record as “prevented axonal degeneration”. For the same molecule, the “plasma level of GSSSG” value in data set [1] came to 58 nM.

For the molecule `CC(=O)O[C@H]1C(=O)[C@@]2(C)[C@H]([C@H](OC(=O)c3ccccc3)[C@]3(O)C[C@H](OC(=O)[C@H](O)[C@@H](NC(=O)c4ccccc4)c4ccccc4)C(C)=C1C3(C)C)[C@]1(OC(C)=O)CO[C@@H]1C[C@@H]2O` [paclitaxel, Paclitaxel, reference compound], in the data set with mouse model of PIPN (paclitaxel 4 mg/kg i.p. every other day, 4 injections, 4 weeks, vs control), the “thermal hyperalgesia (hot plate test)” value is listed as “induced thermal hyperalgesia”. The negative logarithm of the IC50 (pIC50) (commonly −log10 of the IC50, conventionally taken in molar units) in data set [2] is 5.78.
